The values that follow come from patent publication EP0071535B1, “(4-(2 and/or 3-Thienylacetamido)-phenoxy)-hydroxyaminopropanes, their preparation, their therapeutic use and intermediates” (CARPIBEM (CENTRE D'ACTIVITE ET DE RECHERCHE PHARMACEUTIQUE …, priority 1981, dated 1983).

As a reminder, the inhibition is the drop in the measured response relative to a control, in per cent.

Test [1] has as its system effets β1 (augmentation de la force contractile du myocarde) de l'isoprénaline. Description: β-blocking activity: inhibition of the β1 effects of intravenous isoprenaline in anaesthetised dogs. The format is in vivo, chiens. As to conditions: Canis lupus familiaris, iv, dog, inhibition given with negative sign, read-out: % d'inhibition des effets β1^(+) de l'Isoprénaline; for inhibition at 0.001 mg/kg: 0,001 mg/kg I.V.; for inhibition at 0.003 mg/kg: 0,003 mg/kg I.V.; for inhibition at 0.01 mg/kg: 0,010 mg/kg I.V.; for inhibition at 0.1 mg/kg: 0,100 mg/kg I.V. On the procedure:
(§1) Des chiens tout-venants mâles ou femelles sont anesthésiés au mébubarbital sodique (30 mg/kg I.V.) et ventilés artificiellement par une pompe Pesty RPP. Ils sont supplémentés en oxygène.
(§2) On mesure: • - la pression carotidienne systolique et diastolique • - la force contractile du myocarde.
(§3) Les signaux sont amplifiés et enregistrés sur Dynograph Beckman.
(§4) L'activité β bloquante adrénergique a été étudiée vis-à-vis des effets β1 (augmentation de la force contractile du myocarde) et des effets P2 (diminution de la pression artérielle disstolique) de l'isoprénaline administrée par voie intraveineuse.
(§5) On calcule le pourcentsge d'inhibition des effets β1 et des effets β2 de l'isoprénaline en fonction des doses (mg.kg I.V.) des différents exemples.
(§6) Les exemples sont injectés dans le veine saphène aux doses (exprimées en base) de: 0,0003 0,001 0,003 0,01 0,1 1,0 et 4,0 ou 8,0 mg.kg-1.

Test [2] relates to effets β2 (diminution de la pression artérielle diastolique) de l'isoprénaline. Kind of test: β-blocking activity: inhibition of the β2 effects of intravenous isoprenaline in anaesthetised dogs. The test is classed as in vivo, chiens. As to conditions: Canis lupus familiaris, iv, dog, inhibition given with negative sign, read-out: % d'inhibition des effets β2^⊕ de l'Isoprénaline; for inhibition at 0.001 mg/kg: 0,001 mg/kg I.V.; for inhibition at 0.003 mg/kg: 0,003 mg/kg I.V.; for inhibition at 0.01 mg/kg: 0,010 mg/kg I.V.; for inhibition at 0.1 mg/kg: 0,100 mg/kg I.V. On the procedure: as §1, §2, §3, §4, §5, §6

Test [3] concerns rat génétiquement hypertendu: Rat OKAMOTO. Kind of test: Antihypertensive activity in spontaneously hypertensive rats (tail-cuff systolic pressure and heart rate after oral dosing). The test is classed as in vivo. The procedure:
Des rats mâles âgés de 13 à 21 semaines présentant une hypertension spontanée génétiquement transmissible (souche OKAMOTO provenance IFFA CREDO) sont placés dans une enceinte thermostatée à 38°C. Les rats sont laissés en situation libre. La pression artérielle est mesurée par un sphygmomanomètre Narco Biosystem. Un manchon est placé à la base de la queue et un détecteur enregistre le pouls en aval du manchon. Celui-ci est gonflé jusqu'à suppression du pouls il est ensuite progressivement dégonflé. La pression mesurée à la reprise des battements cardiaques est la pression artérielle systolique. On calcule la fréquence cardiaque à partir de l'enregistrement du pouls artériel. Les produits à étudiar sont mis en suspension el administrés par voie orale sous un volume de 1 ml pour 100 g de poids corporel. Les mesures sont répétées à intervalles réguliers.
Les valeurs moyennes avant traitement pour les différents lots de rats sont pour la pression artérielle systolique de 190 à 200 mmHg et pour la fréquence cardiaque de 305 à 350 battements par minute.
Le tableau III ci-après donne la moyenne des variations de la pression systolique (mmHg) de la fréquence cardisque (battements/minute) et les écarts type à la moyenne obtenus 1 heure 3 heures et 5 heures après administration orale.

Regarding `CC(C)NCC(O)COc1ccc(NC(=O)Cc2ccsc2)cc1Br` (stereo not drawn) [exemple 42, 1-[2-bromo 4-(3-thiénylacétamido)phénoxy] 3-isopropylamino 2-propanol], in test [1], the inhibition at 0.001 mg/kg is -29%, the inhibition at 0.003 mg/kg is -51%, the inhibition at 0.01 mg/kg was -70% and the inhibition at 0.1 mg/kg is -100%. Besides, in test [2], the inhibition at 0.001 mg/kg was 0%, the inhibition at 0.003 mg/kg worked out at 0%, the inhibition at 0.01 mg/kg is 0% and the inhibition at 0.1 mg/kg worked out at 0%. Further, in test [3] (64 mg.kg^-1 V.O), the “Fréquence cardiaque Δ (battements/min) T+1 heure m (sm)” value was “+50 (19) battements/min”, the “Pression systolique Δ (mmHg) T+1 heure m (sm)” value was -43 (8) mmHg, the “Fréquence cardiaque Δ (battements/min) T+3 heures m (sm)” value is recorded as “+17 (12) battements/min” and the “Pression systolique Δ (mmHg) T+3 heures m (sm)” value was -55 (7) mmHg. Further, in test [3] (64 mg.kg^-1 V.O), the “Fréquence cardiaque Δ (battements/min) T+5 heures m (sm)” value was “+33 (12) battements/min” and the “Pression systolique Δ (mmHg) T+5 heures m (sm)” value was -51 (10) mmHg.

As for `CC(C)(C)NCC(O)COc1ccc(NC(=O)Cc2cccs2)cc1Cl` (stereo not drawn) [exemple 43, 1-[2-chloro 4-(2-thiénylacétamido)phénoxy] 3-terbutylamino 2-propanol], in test [1], the inhibition at 0.001 mg/kg was -18%, the inhibition at 0.003 mg/kg was -49%, the inhibition at 0.01 mg/kg is -82% and the inhibition at 0.1 mg/kg was -100%. In test [2], the inhibition at 0.001 mg/kg worked out at 0%, the inhibition at 0.003 mg/kg is 0%, the inhibition at 0.01 mg/kg was determined as 0% and the inhibition at 0.1 mg/kg was -22%. Also, in test [3] (64 mg.kg^-1 V.O), the “Fréquence cardiaque Δ (battements/min) T+1 heure m (sm)” value was “+13 (20) battements/min”, the “Pression systolique Δ (mmHg) T+1 heure m (sm)” value is on record as -29 (9) mmHg, the “Fréquence cardiaque Δ (battements/min) T+3 heures m (sm)” value is given as “+23 (7) battements/min” and the “Pression systolique Δ (mmHg) T+3 heures m (sm)” value is -44 (6) mmHg. For the same molecule, in test [3] (64 mg.kg^-1 V.O), the “Fréquence cardiaque Δ (battements/min) T+5 heures m (sm)” value is “+30 (12) battements/min” and the “Pression systolique Δ (mmHg) T+5 heures m (sm)” value was -44 (4) mmHg.

Consider `CC(C)NCC(O)COc1ccc(NC(=O)Cc2cccs2)cc1Cl` (stereo not drawn) [exemple 44, 1-[2-chloro 4-(2-thiénylacétamido)phénoxy] 3-isopropylamino 2-propanol], for which, in test [1], the inhibition at 0.001 mg/kg is -27%, the inhibition at 0.003 mg/kg is -46%, the inhibition at 0.01 mg/kg is -67% and the inhibition at 0.1 mg/kg is -82%. In addition, in test [2], the inhibition at 0.001 mg/kg is -11%, the inhibition at 0.003 mg/kg is -22%, the inhibition at 0.01 mg/kg is -18% and the inhibition at 0.1 mg/kg was -15%. In test [3] (128 mg.kg^-1 V.O), the “Fréquence cardiaque Δ (battements/min) T+1 heure m (sm)” value was “+68 (5) battements/min”, the “Pression systolique Δ (mmHg) T+1 heure m (sm)” value was -37 (11) mmHg, the “Fréquence cardiaque Δ (battements/min) T+3 heures m (sm)” value is “+45 (12) battements/min” and the “Pression systolique Δ (mmHg) T+3 heures m (sm)” value is listed as -48 (11) mmHg. For the same molecule, in test [3] (128 mg.kg^-1 V.O), the “Fréquence cardiaque Δ (battements/min) T+5 heures m (sm)” value was “+52 (11) battements/min” and the “Pression systolique Δ (mmHg) T+5 heures m (sm)” value was -53 (11) mmHg.

For the molecule `CC(C)(C)NCC(O)COc1ccc(NC(=O)Cc2ccsc2)cc1Cl` (stereo not drawn) [exemple 45, 1-[2-chloro 4-(3-thiénylacétamido)phénoxy] 3-terbutylamino 2-propanol], in test [1], the inhibition at 0.001 mg/kg was -30%, the inhibition at 0.003 mg/kg is -60%, the inhibition at 0.01 mg/kg is -86% and the inhibition at 0.1 mg/kg was -100%. In addition, in test [2], the inhibition at 0.001 mg/kg was -12%, the inhibition at 0.003 mg/kg is -5%, the inhibition at 0.01 mg/kg is -23% and the inhibition at 0.1 mg/kg is -33%. Besides, in test [3] (64 mg.kg^-1 V.O), the “Fréquence cardiaque Δ (battements/min) T+1 heure m (sm)” value is “+45 (6) battements/min”, the “Pression systolique Δ (mmHg) T+1 heure m (sm)” value is -32 (5) mmHg, the “Pression systolique Δ (mmHg) T+3 heures m (sm)” value was -14 (9) mmHg and the “Fréquence cardiaque Δ (battements/min) T+5 heures m (sm)” value is on record as “+30 (10) battements/min”. For the same molecule, the “Pression systolique Δ (mmHg) T+5 heures m (sm)” value in test [3] (64 mg.kg^-1 V.O) was -28 (5) mmHg.

As for `CC(C)NCC(O)COc1ccc(NC(=O)Cc2cccs2)cc1F` (stereo not drawn) [exemple 48, 1-[2-fluoro 4-(2-thiénylacétamido)phénoxy] 3-isopropylamino 2-propanol], in test [1], the inhibition at 0.001 mg/kg is -11%, the inhibition at 0.003 mg/kg is -23%, the inhibition at 0.01 mg/kg was -41% and the inhibition at 0.1 mg/kg is -83%. In test [2], the inhibition at 0.001 mg/kg was -27%, the inhibition at 0.003 mg/kg was -31%, the inhibition at 0.01 mg/kg is -46% and the inhibition at 0.1 mg/kg was -52%. Further, in test [3] (64 mg.kg^-1 V.O), the “Fréquence cardiaque Δ (battements/min) T+1 heure m (sm)” value is “+38 (10) battements/min”, the “Pression systolique Δ (mmHg) T+1 heure m (sm)” value is -51 (6) mmHg, the “Fréquence cardiaque Δ (battements/min) T+3 heures m (sm)” value is “+41 (8) battements/min” and the “Pression systolique Δ (mmHg) T+3 heures m (sm)” value is reported as -50 (6) mmHg. In addition, in test [3] (64 mg.kg^-1 V.O), the “Fréquence cardiaque Δ (battements/min) T+5 heures m (sm)” value is “+27 (10) battements/min” and the “Pression systolique Δ (mmHg) T+5 heures m (sm)” value was -45 (6) mmHg.
